In publication PMC5390315 (Scientific Reports, 2017):
Read-outs that look alike come from different tables or passages of the source.

How the values were obtained:
[1] = system: HeLa; experiment: Antiproliferative MTT assay, HeLa; format: cell-based, human; conditions: Homo sapiens, HeLa, 72 h, mean ± SE
Experimental: (§1) Human T-cell leukemia (Jurkat) and human B-cell leukemia (SEM and RS4;11) cells were grown in RPMI-1640 medium (Gibco, Milano, Italy). Breast adenocarcinoma (MCF-7), human cervix carcinoma (HeLa), human lung adenocarcinoma (A549) and human colon adenocarcinoma (HT-29) cells were grown in DMEM medium (Gibco, Milano, Italy), all supplemented with 115 units/mL penicillin G (Gibco, Milano, Italy), 115 μg/mL streptomycin (Invitrogen, Milano, Italy), and 10% fetal bovine serum (FBS; Invitrogen, Milano, Italy). Stock solutions (10 mM) of the different compounds were obtained by dissolving them in DMSO. Individual wells of a 96-well tissue culture microtiter plate were inoculated with 100 μL of complete medium containing 8 × 10^3 cells. The plates were incubated at 37 °C in a humidified 5% CO2 incubator for 18 h prior to the experiments. After medium removal, 100 μL of fresh medium containing the test compound at different concentrations was added to each well in triplicate and incubated at 37 °C for 72 h. The percentage of DMSO in the medium never exceeded 0.25%. This was also the maximum DMSO concentration in all cell-based assays described below.

[2] = system: Jurkat; experiment: Antiproliferative MTT assay, Jurkat; format: cell-based, human; conditions: Homo sapiens, Jurkat, 72 h, mean ± SE
Experimental: as §1

[3] = system: RS 4;11; experiment: Antiproliferative MTT assay, RS 4;11; format: cell-based, human; conditions: Homo sapiens, RS4-11, 72 h, mean ± SE
Experimental: as §1

[4] = system: SEM cells; experiment: Antiproliferative MTT assay, SEM; format: cell-based, human; conditions: Homo sapiens, 72 h, mean ± SE
Experimental: as §1

[5] = system: bovine brain tubulin; experiment: Inhibition of tubulin polymerization; format: biochemical; conditions: tubulin at 10 μM; read-out: Tubulin assembly IC50 ± S.D
Experimental: (§2) To evaluate the effect of the compounds on tubulin assembly in vitro[41], varying concentrations of compounds were preincubated with 10 μM bovine brain tubulin in 0.8 M monosodium glutamate (pH adjusted to 6.6 with HCl in a 2.0 M stock solution) at 30 °C and then cooled to 0 °C. After addition of 0.4 mM GTP, the mixtures were transferred to 0 °C cuvettes in a recording spectrophotometer and warmed to 30 °C. Tubulin assembly was followed turbidimetrically at 350 nm. […] The capacity of the test compounds to inhibit colchicine binding to tubulin was measured as described, except that the reaction mixtures contained 1 μM tubulin, 5 μM [^3H]colchicine and 1 or 5 μM test compound.

[6] = system: tubulin; experiment: Inhibition of [3H]colchicine binding to tubulin; conditions: tubulin 1 μM, [3H]colchicine 5 μM
Experimental: as §2

[7] = system: panel of seven human tumor cell lines; experiment: Antiproliferative activity, range over panel of seven human tumor cell lines; format: cell-based; conditions: read-out: IC50 values, range over the cell line panel
Experimental: as §1

[8] = system: HUVECs; experiment: HUVEC scratch wound motility assay; format: cell-based, human
Experimental: (§3) HUVECs were prepared from human umbilical cord veins, as previously described. The adherent cells were maintained in M200 medium supplemented with LSGS (Low Serum Growth Supplement), containing FBS, hydrocortisone, hEGF, bFGF, heparin, gentamycin/amphotericin (Life Technologies, Monza, Italy). Once confluent, the cells were detached by a trypsin–EDTA solution and used in experiments from the first to sixth passages.
The motility assay for HUVECs was based on “scratch” wounding of a confluent monolayer. Briefly, HUVECs (1x10^5) were seeded onto 6-well plates coated with 0.1% collagen type I (BD Biosciences, Italy) in complete medium until a confluent monolayer was formed. The cells were wounded using a pipette tip, and wells were washed with PBS to remove undetached cells. Then, the cells were treated with the test compounds, and, at different times from the scratch, the cells were photographed under a light microscope. At all indicated time points, the wound width was measured in four areas and compared with the initial width.

[9] = system: HUVECs; experiment: Disruption of capillary-like tubes on Matrigel; format: cell-based, human; conditions: 24 h
Experimental: as §3
Matrigel matrix (Basement Membrane Matrix, BD Biosciences, Italy) was kept at 4 °C for 3 h, when 230 μL of Matrigel solution was added to each well of a 24-well plate. After gelling at 37 °C for 30 min, gels were overlaid with 500 μL of medium containing 6 × 10^4 HUVECs. The cells were incubated over Matrigel for 6 h to allow capillary tubes to form. Different concentrations of test compound were added in the cultures and incubated for different times, and the disappearance of existing vasculature was monitored and photographed (five fields for each well: the four quadrants and the center) at a 10x magnification. Phase contrast images were recorded using a digital camera and saved as TIFF files. Image analysis was carried out using ImageJ image analysis software, and dimensional (percent area covered by HUVECs and total length of HUVECs network per field) and topological parameters (number of meshes and branching points per field) were determined. Values were expressed as percent change from control cultures grown with complete medium.

[10] = system: A549; experiment: Antiproliferative MTT assay, A549; format: cell-based, human; conditions: Homo sapiens, A549, 72 h, mean ± SE
Experimental: as §1

[11] = system: HT-29; experiment: Antiproliferative MTT assay, HT-29; format: cell-based, human; conditions: Homo sapiens, HT-29, 72 h, mean ± SE
Experimental: as §1

[12] = system: MCF-7; experiment: Antiproliferative MTT assay, MCF-7; format: cell-based, human; conditions: Homo sapiens, MCF7, 72 h, mean ± SE
Experimental: as §1

[13] = system: PBL not stimulated with PHA; experiment: Cytotoxicity in resting peripheral blood lymphocytes; format: cell-based; conditions: Homo sapiens, Lymphocyte, 72 h, MTT, mean ± SEM, read-out: IC50 PBLresting
Experimental: (§4) Peripheral blood lymphocytes (PBL) from healthy donors were obtained from human peripheral blood (leucocyte rich plasma- buffy coats) from healthy volunteers using the Lymphoprep (Fresenius KABI Norge AS) gradient density centrifugation.
(§5) After extensive washing, cells were resuspended (1.0 × 10^6 cells/mL) in RPMI-1640 with 10% FBS and incubated overnight. For cytotoxicity evaluations in proliferating PBL cultures, non-adherent cells were resuspended at 5 × 10^5 cells/mL in growth medium, containing 2.5 μg/mL PHA (Irvine Scientific). Different concentrations of the test compounds were added, and viability was determined 72 h later by the MTT test. For cytotoxicity evaluations in resting PBL cultures, non-adherent cells were resuspended (5 × 10^5 cells/mL) and treated for 72 h with the test compounds, as described above.

[14] = system: PBL stimulated with PHA; experiment: Cytotoxicity in PHA-stimulated peripheral blood lymphocytes; format: cell-based; conditions: Homo sapiens, Lymphocyte, 72 h, MTT, mean ± SEM, read-out: IC50 PBLPHA
Experimental: as §4, §5

[15] = system: HUVECs; experiment: Cytotoxicity in HUVECs; format: cell-based; conditions: Homo sapiens, HUVEC; primary HUVECs
Experimental: as §3

Row | IC50 [1] | IC50 [2] | IC50 [5] | IC50 [10] | IC50 [11] | IC50 [12] | Colchicine binding % inhibition ± S.D, 5 μM drug [6] | melting point | IC50 ([7]; Homo sapiens) | SMILES | IC50 [3] | IC50 [4] | Colchicine binding % inhibition ± S.D, 1 μM drug [6] | IC50 [7] | HUVEC cell migration (wound healing) ([8]; 10 nM, 6 and 24 h) | antivascular effect on Matrigel preformed tubular structures ([9]; 10 nM) | IC50 [13] | IC50 [14] | IC50 [15] | HUVEC cell migration (wound healing) ([8]; 100 nM, 6 h and 24 h) | antivascular effect on Matrigel preformed tubular structures ([9]; 100 nM (highest concentration))
1 | 2 ± 0.8 nM | 50.7 ± 10.8 nM | 1300 ± 100 nM | 1.5 ± 0.44 nM | 1.9 ± 0.8 nM | 0.4 ± 0.08 nM | 72 ± 2% | 116 to 118 °C | – | CCOc1ccc(-c2nc(C)oc2-c2cc(OC)c(OC)c(OC)c2)cc1 [Compound 5f, 4-(4-Ethoxyphenyl)-5-(3,4,5-trimethoxyphenyl)-2-methyloxazole] | 11.9 ± 6.3 nM | 13.3 ± 4.2 nM | – | – | – | – | 34500 ± 4500 nM | 17700 ± 2100 nM | > 100000 nM | significantly reduced | did not show a significant antivascular effect
2 | 2.1 ± 0.5 nM | 73.2 ± 5.2 nM | 1200 ± 100 nM | 12.6 ± 5.4 nM | 0.5 ± 0.1 nM | 1.1 ± 0.5 nM | 74 ± 5% | 104 to 116 °C | 0.5 to 73.2 nM | COc1cc(-c2nc(C)oc2-c2ccc3ccccc3c2)cc(OC)c1OC [Compound 4a, 4-(3,4,5-Trimethoxyphenyl)-2-methyl-5-(naphthalen-3-yl)oxazole] | 14.3 ± 6.2 nM | 40.2 ± 11 nM | 47 ± 0.8% | – | – | – | 15500 ± 1500 nM | 21100 ± 1200 nM | > 100000 nM | – | –

Row | SMILES | IC50 [1] | IC50 [2] | IC50 [5] | IC50 [10] | IC50 [11] | IC50 [12] | Colchicine binding % inhibition ± S.D, 5 μM drug [6] | melting point | IC50 ([7]; Homo sapiens) | IC50 [3] | IC50 [4] | Colchicine binding % inhibition ± S.D, 1 μM drug [6] | IC50 [7] | HUVEC cell migration (wound healing) ([8]; 10 nM, 6 and 24 h) | antivascular effect on Matrigel preformed tubular structures ([9]; 10 nM) | IC50 [13] | IC50 [14] | IC50 [15] | HUVEC cell migration (wound healing) ([8]; 100 nM, 6 h and 24 h) | antivascular effect on Matrigel preformed tubular structures ([9]; 100 nM (highest concentration))
3 | COc1ccc(/C=C\c2cc(OC)c(OC)c(OC)c2)cc1O [CA-4, combretastatin A-4, reference compound] | 4 ± 0.1 nM | 5 ± 0.6 nM | […] | – | – | – | – | – | – | 0.8 ± 0.2 nM | 5 ± 0.1 nM | 93 ± 0.8% | 0.8 to 3100 nM | […] | significant antivascular activity | – | – | – | – | –
